Molecules are shown by their SMILES.

The source of these data is US20260125400A1, “TYK2 DEGRADERS AND USES THEREOF” (Kymera Therapeutics, Inc., priority 2023, published 2026).

This experiment deals with T1, TYK2 (Homo sapiens, UniProt P29597).
T1 construct: Degradation of TYK2 in cells was quantitatively measured using Meso Scale Discovery (MSD) technology; endogenous in cells; host or cells: OCI-LY10
Kind of experiment: TYK2 MSD degradation in OCI-LY10 cells. The class given is cell-based. Particulars: OCI-LY10 cells, 4 to 24 hours incubation; for DC50: read-out: TYK2 MSD OCI-LY10 Rel-DC50. The procedure, abridged: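 Cellular TYK2 levels were measured by Meso Scale Discovery sandwich detection in RIPA lysates of OCI-LY10 cells exposed 4 to 24 hours at 37° C to nine 1:3 compound doses starting at 1 to 10 μM final; dose-response fitted by four-parameter regression.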

T1 sequence (P29597 whole entry): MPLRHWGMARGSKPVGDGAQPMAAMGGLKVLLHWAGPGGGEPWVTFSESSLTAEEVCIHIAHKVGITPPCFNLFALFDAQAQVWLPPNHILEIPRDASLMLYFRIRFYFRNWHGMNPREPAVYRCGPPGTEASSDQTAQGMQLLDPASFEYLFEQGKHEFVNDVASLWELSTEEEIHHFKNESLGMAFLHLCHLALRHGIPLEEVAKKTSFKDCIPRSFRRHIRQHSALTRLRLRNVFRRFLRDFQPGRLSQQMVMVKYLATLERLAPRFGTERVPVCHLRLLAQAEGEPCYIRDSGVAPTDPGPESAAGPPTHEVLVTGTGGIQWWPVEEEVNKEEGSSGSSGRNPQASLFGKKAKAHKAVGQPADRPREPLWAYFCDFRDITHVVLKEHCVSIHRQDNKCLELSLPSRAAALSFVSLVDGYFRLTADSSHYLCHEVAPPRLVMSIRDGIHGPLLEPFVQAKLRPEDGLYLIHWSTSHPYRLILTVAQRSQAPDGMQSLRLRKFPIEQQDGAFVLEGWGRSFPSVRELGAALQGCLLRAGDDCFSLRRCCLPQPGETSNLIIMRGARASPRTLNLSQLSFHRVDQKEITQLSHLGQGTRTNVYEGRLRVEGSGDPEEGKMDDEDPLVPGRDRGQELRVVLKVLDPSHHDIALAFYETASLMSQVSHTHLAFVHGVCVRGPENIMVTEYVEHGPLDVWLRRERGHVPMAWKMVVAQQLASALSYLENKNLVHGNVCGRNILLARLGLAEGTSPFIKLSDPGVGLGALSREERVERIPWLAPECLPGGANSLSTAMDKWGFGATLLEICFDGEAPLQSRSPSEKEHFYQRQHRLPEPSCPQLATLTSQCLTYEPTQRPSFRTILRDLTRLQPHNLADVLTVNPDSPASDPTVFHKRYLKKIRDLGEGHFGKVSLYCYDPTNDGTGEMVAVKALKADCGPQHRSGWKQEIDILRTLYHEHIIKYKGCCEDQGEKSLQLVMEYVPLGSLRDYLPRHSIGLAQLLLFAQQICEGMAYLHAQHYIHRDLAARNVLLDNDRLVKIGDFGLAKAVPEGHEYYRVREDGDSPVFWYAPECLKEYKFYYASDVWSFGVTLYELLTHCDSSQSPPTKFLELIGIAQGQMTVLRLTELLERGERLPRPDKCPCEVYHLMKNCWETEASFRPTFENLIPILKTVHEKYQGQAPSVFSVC

One may read the DC50 as the concentration giving 50% degradation. Turning to `CNc1cc(N2CCc3c(CC4CN(C5CCN(C6CCN(C(=O)c7ccc(Cl)c(N8CCC(=O)NC8=O)c7)CC6)CC5(F)F)C4)cccc32)nn2c(C(=O)N[C@@H]3C[C@@H]3F)cnc12` (some centres unmarked) [I-698], the “TYK2 MSD OCI-LY10 Dmax %” value is “B (B (90 to >75%))” and the half-maximal degradation concentration (DC50) is less than 1 nM.
The like results for `CNc1cc(N2CCc3c(C#CCN4CCC(N5CCC6(CCN(C(=O)c7ccc(Cl)c(N8CCC(=O)NC8=O)c7)CC6)CC5)C(F)(F)C4)cccc32)nn2c(C(=O)N[C@@H]3C[C@@H]3F)cnc12` (some centres unmarked) [I-700] were, in that order, “B (B (90 to >75%))” and less than 1 nM.
Taken in the same sequence, the figures for `CNc1cc(N2CCc3c(C#CCN4CCC(N5CC6(CCN(C(=O)c7ccc(Cl)c(N8CCC(=O)NC8=O)c7)CC6)C5)C(F)(F)C4)cccc32)nn2c(C(=O)N[C@@H]3C[C@@H]3F)cnc12` (some centres unmarked) [I-701] were “A (A (>90%))” and less than 1 nM.
Taken in the same sequence, the figures for `CNc1cc(N2CCc3c(C#CCN4CCC(N5CCC6(CC5)CN(C(=O)c5ccc(Cl)c(N7CCC(=O)NC7=O)c5)C6)C(F)(F)C4)cccc32)nn2c(C(=O)N[C@@H]3C[C@@H]3F)cnc12` (some centres unmarked) [I-702] were “B (B (90 to >75%))” and less than 1 nM.
For the compound `CNc1cc(N2CCc3c(CN4CCC(N5CCC(N6CCN(C(=O)c7ccc(Cl)c(N8CCC(=O)NC8=O)c7)CC6)CC5)C(F)(F)C4)cccc32)nn2c(C(=O)N[C@@H]3C[C@@H]3F)cnc12` (some centres unmarked) [I-707], the “TYK2 MSD OCI-LY10 Dmax %” value is listed as “D (D (<50%))” and the half-maximal degradation concentration (DC50) was less than 10 nM.
The like results for `CNc1cc(N2CCc3c(CC4CCC(N5CCC(N6CCN(C(=O)c7ccc(Cl)c(N8CCC(=O)NC8=O)c7)CC6)C(F)(F)C5)CC4)cccc32)nn2c(C(=O)NC3CC3F)cnc12` (centres unmarked) [I-708] were, in that order, “D (D (<50%))” and less than 1 nM.
`CNc1cc(N2CCc3c(-c4cc(CN5CCN(c6cc7c(cc6F)c(N6CCC(=O)NC6=O)nn7C)CC5)ccn4)cccc32)nn2c(C(=O)N[C@@H]3C[C@@H]3F)cnc12` [I-709]: the “TYK2 MSD OCI-LY10 Dmax %” value is “D (D (<50%))” and the half-maximal degradation concentration (DC50) was less than 10 nM.
`CNc1cc(N2CCc3c(CN4CCC(N5CC(CN6CCN(C(=O)c7ccc(Cl)c(N8CCC(=O)NC8=O)c7)CC6)C5)C(F)(F)C4)cccc32)nn2c(C(=O)N[C@@H]3C[C@@H]3F)cnc12` (some centres unmarked) [I-710]: the “TYK2 MSD OCI-LY10 Dmax %” value is on record as “B (B (90 to >75%))” and the DC50 is less than 10 nM.
Turning to `CNc1cc(N2CCc3c(CN4CCC(N5CCC6(CCN(C(=O)c7cc(Cl)c(C)c(N8CCC(=O)NC8=O)c7)CC6)CC5)C(F)(F)C4)cccc32)nn2c(C(=O)N[C@@H]3C[C@@H]3F)cnc12` (some centres unmarked) [I-711], the “TYK2 MSD OCI-LY10 Dmax %” value is given as “B (B (90 to >75%))” and the DC50 was less than 10 nM.
As for `CNc1cc(N2CCc3c(CN4CCC(N5CCC6(CCN(C(=O)c7cc(F)c(Cl)c(N8CCC(=O)NC8=O)c7)CC6)CC5)C(F)(F)C4)cccc32)nn2c(C(=O)N[C@@H]3C[C@@H]3F)cnc12` (some centres unmarked) [I-712], the “TYK2 MSD OCI-LY10 Dmax %” value is reported as “B (B (90 to >75%))” and the DC50 was less than 1 nM.
Taken in the same sequence, the figures for `CNc1cc(N2CCc3c(CN4CCC(N5CCC6(CCN(C(=O)c7cc(C)c(Cl)c(N8CCC(=O)NC8=O)c7)CC6)CC5)C(F)(F)C4)cccc32)nn2c(C(=O)N[C@@H]3C[C@@H]3F)cnc12` (some centres unmarked) [I-713] were “B (B (90 to >75%))” and less than 10 nM.
For the compound `CNc1cc(N2CCc3c(CN4CC[C@@H](N5CCC6(CCN(C(=O)c7ccc(Cl)c(N8CCC(=O)NC8=O)c7)CC6)CC5)C(F)(F)C4)cccc32)nn2c(C(=O)N[C@@H]3C[C@@H]3F)cnc12` [I-714], the “TYK2 MSD OCI-LY10 Dmax %” value was “B (B (90 to >75%))” and the DC50 was less than 1 nM.
With `CNc1cc(N2CCc3c(CN4CC[C@H](N5CCC6(CCN(C(=O)c7ccc(Cl)c(N8CCC(=O)NC8=O)c7)CC6)CC5)C(F)(F)C4)cccc32)nn2c(C(=O)N[C@@H]3C[C@@H]3F)cnc12` [I-715], the “TYK2 MSD OCI-LY10 Dmax %” value is listed as “B (B (90 to >75%))” and the DC50 is less than 1 nM.
Taken in the same sequence, the figures for `CNc1cc(N2CCc3c(CN4CCC(N5CCC(CN6CCN(C(=O)c7ccc(Cl)c(N8CCC(=O)NC8=O)c7)CC6)CC5)C(F)(F)C4)cccc32)nn2c(C(=O)N[C@@H]3C[C@@H]3F)cnc12` (some centres unmarked) [I-716] were “B (B (90 to >75%))” and less than 1 nM.
As for `CNc1cc(N2CCc3c(CN4CCC(CCN5CCN(C(=O)c6ccc(Cl)c(N7CCC(=O)NC7=O)c6)CC5)CC4)cccc32)nn2c(C(=O)N[C@@H]3C[C@@H]3F)cnc12` [I-717], the “TYK2 MSD OCI-LY10 Dmax %” value was “C (C (75 to 50%))” and the DC50 is less than 10 nM.
The like results for `CNc1cc(N2CCc3c(-c4cc(CN5CCN(c6ccn7c(N8CCC(=O)NC8=O)cnc7c6)CC5)ccn4)cccc32)nn2c(C(=O)N[C@@H]3C[C@@H]3F)cnc12` [I-719] were, in that order, “C (C (75 to 50%))” and less than 10 nM.
The like results for `CNc1cc(N2CCc3c(-c4cc(CN5CCN(c6noc7cc(N8CCC(=O)NC8=O)ccc67)CC5)ccn4)cccc32)nn2c(C(=O)N[C@@H]3C[C@@H]3F)cnc12` [I-723] were, in that order, “D (D (<50%))” and more than 100 nM.
Consider `CNc1cc(N2CCc3c2ccc(F)c3-c2ccc(CN3CCC4(CCN(C(=O)c5cc(C)c(Cl)c(N6CCC(=O)NC6=O)c5)CC4)C(F)(F)C3)cn2)nn2c(C(=O)N[C@@H]3C[C@@H]3F)cnc12` [I-742], for which the “TYK2 MSD OCI-LY10 Dmax %” value is given as “C (C (75 to 50%))” and the DC50 was in the range of 10 to 100 nM.
The like results for `CNc1cc(N2CCc3c(CCN4CCC(N5CCN(C(=O)c6ccc(Cl)c(N7CCC(=O)NC7=O)c6)CC5)C(F)(F)C4)cccc32)nn2c(C(=O)N[C@@H]3C[C@@H]3F)cnc12` (some centres unmarked) [I-743] were, in that order, “B (B (90 to >75%))” and less than 10 nM.
Turning to `CNc1cc(N2CCc3c(-c4ccc(CN5CCC6(CCN(C(=O)c7cc(F)c(Cl)c(N8CCC(=O)NC8=O)c7)CC6)C(F)(F)C5)cn4)cc(F)cc32)nn2c(C(=O)N[C@@H]3CC[C@H]3OC)cnc12` [I-744], the “TYK2 MSD OCI-LY10 Dmax %” value is listed as “B (B (90 to >75%))” and the DC50 was less than 10 nM.
Taken in the same sequence, the figures for `CNc1cc(-c2cn(C3CN(C4CCN(C(=O)c5ccc(Cl)c(N6CCC(=O)NC6=O)c5)CC4)C3)c3ccccc23)nn2c(C(=O)N[C@@H]3C[C@@H]3F)cnc12` [I-745] were “D (D (<50%))” and more than 100 nM.
As to `CNc1cc(N2CCc3c(-c4ncc(CN5CCC6(CCN(C(=O)c7cc(C)c(Cl)c(N8CCC(=O)NC8=O)c7)CC6)C(F)(F)C5)cc4Cl)cccc32)nn2c(C(=O)N[C@@H]3C[C@@H]3F)cnc12` [I-746], the “TYK2 MSD OCI-LY10 Dmax %” value is on record as “B (B (90 to >75%))” and the DC50 is less than 10 nM.
Taken in the same sequence, the figures for `CNc1cc(N2CCc3c(-c4ncc(CN5CC6(CCN(C(=O)c7cc(C)c(Cl)c(N8CCC(=O)NC8=O)c7)CC6(F)F)C5)cc4Cl)cccc32)nn2c(C(=O)N[C@@H]3C[C@@H]3F)cnc12` [I-747] were “B (B (90 to >75%))” and less than 10 nM.
Turning to `CNc1cc(N2CCc3c(CN4CCC(N5CCC6(CCN(C(=O)c7cc(C)c(OC)c(N8CCC(=O)NC8=O)c7)CC6)CC5)C(F)(F)C4)cccc32)nn2c(C(=O)N[C@@H]3C[C@@H]3F)cnc12` (some centres unmarked) [I-749], the “TYK2 MSD OCI-LY10 Dmax %” value was “B (B (90 to >75%))” and the DC50 is less than 10 nM.
Regarding `CNc1cc(N2CCc3c2ccc(F)c3CN2CCC(N3CCC4(CCN(C(=O)c5ccc(Cl)c(N6CCC(=O)NC6=O)c5)CC4)CC3)C(F)(F)C2)nn2c(C(=O)N[C@@H]3C[C@@H]3F)cnc12` (some centres unmarked) [I-750], the “TYK2 MSD OCI-LY10 Dmax %” value is “A (A (>90%))” and the DC50 is less than 1 nM.
